One data set relates to C57BL/6 female mice. In words: In vivo hEPO expression of hEPO mRNA LNPs, serum ELISA. The conditions noted are these: LNP 50:38.5:10:1.5, N:P 6, 0.2 mg/kg hEPO mRNA, tail vein injection, blood serum 6 h post-administration. As to the method:
In this example, messenger RNA molecules encoding hEPO proteins were formulated in lipid nanoparticles for delivery in vivo. The lipid nanoparticle (LNP) formulations comprised of a lipid composition of ionizable lipid: helper lipid: cholesterol. DMG-PEG2k at 50:10:38.5:1.5 mol %. The lipid mixture in ethanol was mixed with hEPO mRNA in RNA acidifying buffer (10 mM citrate, pH 4) at an ionizable-lipid-nitrogen-to-RNA-phosphate ratio (N:P) of 6 using a microfluidic device (Precision NanoSystems, Inc.) at a combined flow rate of 10 mL/min (7.5 mL/min for aqueous buffer, RNA and 2.5 mL/min for ethanol, lipid mix). The resulting particles were neutralized by buffer exchange into Dulbecco's phosphate buffer solution via PD-10 desalting column. The neutralized particles were concentrated using 100 kDa AMICON® Ultra centrifugal filters and sterile filtered using 0.2 um syringe filters. Samples were then characterized and diluted as needed (3 replicates).
The in vivo studies were performed in C57BL/6 female mice at 6 to 8 weeks weighing in at approximately 20 g. The LNPs formulated with different ionizable lipids at 0.2 mg/kg of hEPO mRNA were administered by tail vein injection and animals were euthanized at 6 h post-administration for blood serum sample collection. The hEPO levels from the samples were analyzed and cross-compared by enzyme-linked immunoassay (ELISA) according to manufacturer's protocol. The hEPO expression levels for each of the LNPs was compared to a control LNP comprising SM102 (DC Chemicals Cat. No. DC52025). (FIG. 1).

Data set [1] is described as follows: Apparent pKa of LNPs (TNS assay). Format: physicochemical. As to conditions: LNP, hEPO mRNA, Lipid:Cholesterol:DSPC:PEG-2k 50:38.5:10:1.5, N:P 6. The text has this:
(§1) Various lipid nanoparticle compositions comprising a nucleic acid payload are characterized by a variety of methods. For example, dynamic light scattering (DLS) is used to determine particle sizes (Wyatt Dynapro Platereader 111). In addition, instruments such as the Zetasizer Nano ZS (Malvern Instruments Ltd) are used to measure multiple physical properties of a lipid nanoparticle composition, such as particle size, polydispersity index (PDI), and zeta potential. Fluorescence-based assays are used to determine the efficiencies of nucleic acid encapsulation in the lipid nanoparticles. Fluorescence-based assays are used to determine the “apparent pKa” of the lipid nanoparticles. Both fluorescence assays are evaluated on a Varioskanlux plate reader (ThermoScientific).
The apparent pKa of lipid nanoparticle composition is measured using a 6-(p-Toluidino)-2-naphthalenesulfonic acid (TNS) assay. Briefly, lipid nanoparticles (10 uL of approximately 0.5 mg mRNA/mL) and TNS probe (40 uL of 1 mM stock) are added to 750 uL of TNS buffer (25 mM citric acid, 20 mM sodium phosphate, 150 mM NaCl, and 20 mM ammonium acetate), at a pH ranging from 2 to 10. 20 uL of each sample are added to 80 uL of buffer at each pH in a 96-well plate. The plate is incubated for 10 minutes, and the fluorescence signal is measured by means of a spectrofluorometer (Varioskanlux, ThermoScientific) with excitation/emission settings of λex=321 nm, and λem=445 nm. The apparent pKa of the nanoparticle composition is determined by deriving the pH at which 50% of the pH 2 fluorescent signal is present. All datapoints are normalized to the fluorescent signal at pH 2.

Data set [2] can be described thus: Encapsulation efficiency, fluorescence based Ribogreen assay. Format: physicochemical. The conditions noted are these: LNP, hEPO mRNA, Lipid:Cholesterol:DSPC:PEG-2k 50:38.5:10:1.5, N:P 6. Here is the method: For lipid nanoparticle formulations containing an RNA, a QUANTIT™ RIBOGREEN® RNA assay (Invitrogen Corporation) is used to evaluate the encapsulation of RNA within the lipid nanoparticle formulation.
The samples are diluted to ˜10 ug/ml in TE buffer. In a 96 well plate, 50 ul of the diluted sample is added to 50 uL TE buffer in duplicates and 20 uL of diluted sample is added to 80 uL Triton X buffer (2% triton in TE buffer) in duplicates. The plate is incubated for 10 minutes at room temperature. Next, RIBOGREEN® is diluted 1:200 in TE BUFFER, and 100 uL is added to each sample well. The fluorescence intensity is measured using a fluorescence plate reader (e.g., Varioskanlux, ThermoScientific) at an excitation wavelength of about 480 nm and an emission wavelength of about 520 nm. The encapsulation efficiency can be determined by using the percentage ratio of non-encapsulated RNA (TE sample) over the total RNA (TX sample), then subtracting from 100 to find the percentage of encapsulated RNA amount.
(§2) LNPs were characterized by dynamic light scattering (DLS) measurement for measuring its hydrodynamic radius and polydispersity index (PDI). Encapsulation efficiency (EE %) and total RNA concentration were quantitated using a fluorescence based Ribogreen assay.

The nature of data set [3]: LNP size and polydispersity index by dynamic light scattering (DLS). It is filed as physicochemical. As to conditions: hEPO mRNA, Lipid:Cholesterol:DSPC:PEG-2k 50:38.5:10:1.5, N:P 6.
Source text: as §1
After formulation and processing of the lipid nanoparticle compositions, the Z-average size of lipid nanoparticle composition are assayed by dynamic light scattering (DLS) (e.g., using a Wyatt Dynapro Platereader III or Malvern Zetasizer ZS). Briefly, an aliquot of 2 uL of the processed nanoparticle composition mixture (at an RNA concentration of approximately 0.5 mg/mL) is diluted into 50 uL phosphate buffered saline (0.1×PBS) and loaded into a 384 well plate. The sample is then analyzed to determine nanoparticle size.
as §2

Data set [4] is described as follows: Zeta potential assay of LNPs. It is filed as physicochemical. The conditions noted are these: LNP, hEPO mRNA, Lipid:Cholesterol:DSPC:PEG-2k 50:38.5:10:1.5, N:P 6.
Source text: as §1
A Zetasizer Nano ZS (Malvern Instruments Ltd) is used to determine the zeta potential of the nanoparticle compositions. Briefly, a 5 uL aliquot of an approximately 0.5 mg mRNA/mL sample is diluted into 800 uL 0.1×PBS. This sample is then transferred to a disposable conducting cuvette and the zeta potential is measured.

The structures appear in SMILES notation.

In the data set with C57BL/6 female mice, `CCCCCCCCC(CC)OC(=O)CCCCCCCN(CCCCCCCC(=O)OC(CCCCCCCC)CCCCCCCC)CCCn1nc(N)cc1N` (stereo not drawn) [Lipid 18] gave a hEPO of 386.98 ng/mL. Moreover, in data set [1], the pKa (as a rule, the negative logarithm of the acid dissociation constant) amounted to 6.5. Also, in data set [2], the EE came out at 98.9%. In data set [3], this molecule returned a PDI of 0.079 and a Size of 67.2 nm. The molecule further returned a Zeta in data set [4] of −12.8 mV.
In turn, `CCCCCCCCC(CC)OC(=O)CCCCCCCN(CCCCCCCC(=O)OC(CCCCCCCC)CCCCCCCC)CCCNS(=O)(=O)NC` (stereo not drawn) [Lipid 19] returned a hEPO with C57BL/6 female mice of 1014.79 ng/mL. The pKa in data set [1] worked out at 6.3. In addition, the EE in data set [2] is recorded as 96.9%. Moreover, in data set [3], the PDI turned out to be 0.183 and the Size is on record as 60.9 nm. Further, the Zeta in data set [4] was −27.6 mV.
As for `CCCCCCCCC(CC)OC(=O)CCCCCCCN(CCCCCCCC(=O)OC(CCCCCCCC)CCCCCCCC)CCCNS(=O)(=O)N(C)C` (stereo not drawn) [Lipid 20], the hEPO in the data set on C57BL/6 female mice was determined as 361.46 ng/mL. The pKa in data set [1] is listed as 6.6. In data set [2], this molecule returned an EE of 95.2%. For the same molecule, in data set [3], the PDI is 0.162 and the Size was 58.6 nm. In data set [4], this molecule returned a Zeta of −14.5 mV.
As for `CCCCCCCCC(CC)OC(=O)CCCCCCCN(CCCCCCCC(=O)OC(CCCCCCCC)CCCCCCCC)CCCn1nc(N)nc1N` (stereo not drawn) [Lipid 21], in the data set with C57BL/6 female mice, the hEPO was 0.00 ng/mL. Also, in data set [1], the pKa is listed as 6.5. In data set [2], this molecule returned an EE of 96.4%. Further, in data set [3], the PDI is 0.277 and the Size stood at 83.3 nm. The molecule further gave a Zeta in data set [4] of −12.3 mV.
In the data set with C57BL/6 female mice, `CCCCCCCCC(CC)OC(=O)CCCCCCCN(CCCCCCCC(=O)OC(CCCCCCCC)CCCCCCCC)CCCNc1cc(N)n[nH]1` (stereo not drawn) [Lipid 22] came in with a hEPO of 78.29 ng/mL. For the same molecule, in data set [1], the pKa was 5.8. Moreover, the EE in data set [2] was 99.9%. In data set [3], this molecule gave a PDI of 0.159 and a Size of 62.7 nm. For the same molecule, in data set [4], the Zeta is reported as −15.3 mV.
In the data set on C57BL/6 female mice, `CCCCCCCCCCCOC(=O)CCCCCN(CCO)CCCCCCCC(=O)OC(CCCCCCCC)CCCCCCCC` [SM-102, heptadecan-9-yl 8-((2-hydroxyethyl)(6-oxo-6-(undecyloxy)hexyl)amino)octanoate, reference compound] registered a hEPO of 2457.05 ng/mL. Further, the pKa in data set [1] is on record as 7. This molecule also showed an EE in data set [2] of 96.7%. In data set [3], the PDI was found to be 0.106 and the Size is 78.70 nm. The same molecule displayed a Zeta in data set [4] of −3.1 mV.

These data come from patent US20240293318A1, “CLEAVABLE LINKER-CONTAINING IONIZABLE LIPIDS AND LIPID CARRIERS FOR THERAPEUTIC COMPOSITIONS” (Flagship Pioneering Innovations VII, LLC, priority 2023, published 2024).
